{"source": "patent US11116765B2", "about": "(GRIFOLS, S.A., priority 2014, dated 2021)", "key": {"[1]": {"tested_on": "M. avium 104", "conditions": "THP-1 human macrophages, 200 mcg/mL"}, "[2]": {"tested_on": "M. avium 104", "conditions": "THP-1 human macrophages, 20 mcg/mL"}, "[3]": {"tested_on": "M. abscessus 105", "conditions": "100 mcg/mL"}, "[4]": {"tested_on": "M. avium 104", "conditions": "100 mcg/mL"}, "[5]": {"tested_on": "Mycobacterium avium subsp hominissuis (MAH) MAC104 strain", "experiment": "MAH lung infection in C57BL/6 mice, intranasal treatment", "type": "in vivo", "conditions": "3 weeks"}, "[6]": {"tested_on": "M. avium", "conditions": "incubation of M. avium with antibiotic; cited from earlier work"}}, "note": "Read-outs that look alike come from different tables or passages of the source.", "data": [{"molecule": "O=C(O)c1cn(C2CC2)c2cc(N3CCNCC3)c(F)cc2c1=O", "note": "[Ciprofloxacin, ciprofloxacin]", "values": [{"measurement": "Colonization in macrophages, Time: 4 days", "setting": "[1]", "value": "5.0 ± 0.3 × 10^4"}, {"measurement": "Colonization in macrophages, Time: 4 days", "setting": "[2]", "value": "1.1 ± 0.4 × 10^4"}, {"measurement": "Biofilm Colonization, Time: 4 Days", "setting": "[3]", "value": "3.0 ± 0.5 × 10^7"}, {"measurement": "Biofilm Colonization, Time: 4 Days", "setting": "[4]", "value": "4.0 ± 0.3 × 10^7"}, {"measurement": "effect on the growth of MAH in the lungs of mice compared with saline control", "setting": "[5]", "value": "no significant effect"}]}, {"molecule": "CC1(C)S[C@@H]2[C@H](NC(=O)[C@H](N)c3ccccc3)C(=O)N2[C@H]1C(=O)O", "note": "[ampicillin]", "values": [{"measurement": "effect on M. avium biofilm formation", "setting": "[6]", "value": "no effect on biofilm"}]}, {"molecule": "[H]/N=C(/N)N[C@H]1[C@H](O)[C@@H](O)[C@H](O[C@@H]2O[C@@H](C)[C@](O)(C=O)[C@H]2O[C@@H]2O[C@@H](CO)[C@H](O)[C@@H](O)[C@@H]2NC)[C@@H](N/C(N)=N\\[H])[C@@H]1O", "note": "[streptomycin]", "values": [{"measurement": "effect on M. avium biofilm formation", "setting": "[6]", "value": "increase"}]}]}
